In patent US10414739B2, “Compounds as inhibitors of the YAP/TAZ-TEAD interaction and their use in the treatment of malignant mesothelioma” (INVENTIVA, priority 2015, dated 2019):
Where a name gives a salt, the structure may show the parent alone.

Target: T1, YAP-TEAD interaction (human YAP2-His6 (50-114) / human TEAD1-GST (209-426)) (Homo sapiens, UniProt P28347)
T1 construct: GST-TEAD1 (209-426) produced in E. coli; made in house; host or cells: E. coli
Experiment: YAP-TEAD AlphaLISA assay
Type: binding
Conditions: YAP-TEAD AlphaLISA; for Emax: 2 h, maximal % inhibition, read-out: Max Act.; for IC50: 2 h equilibration at room temperature
Protocol: YAP-TEAD AlphaLISA Assay for IC50 Value Determination.
YAP-TEAD binding and inhibition was assessed by monitoring the engagement of YAP2 peptide (human YAP2-His6 (50-114) produced in E. coli) with TEAD (human TEAD1-GST (GST-TEAD1 (209-426) produced in E. coli) using the AlphaLisa technology (Perkin-Elmer). Specifically, in a 384 well (Axygen) 5 μl of compounds were dispensed in 100% DMSO following a semi log serial dilution, with a top concentration of […] (10 concentrations). A ‘3 partners solution’ was prepared by mixing AlphaScreen Glutathione Donor beads 15 μg/ml (PerkinElmer), Anti-6×His AlphaLisA Acceptor beads 15 μg/ml (PerkinElmer) and Human YAP2 9 nM in 100 mM NaCl, 25 mM Hepes, 0.1% BSA, 0.5% NoNidet®P40 buffer. In the 384 assay plate (Proxiplate, Perkin-Elmer)) 2 μl of compound at each concentration, 6 μl of buffer, 6 μl of hTEAD1-GST 9 nM and 6 μl of ‘3 partner solution’ were mixed. After 2 h equilibration at room temperature in the dark the plates were read on an Envision instrument (Excitation @ 680 nm/Emission @ 570 nm, Perkin Elmer).
Results were expressed as % inhibition=100×((HighControl−Cpd)/(HighControl−LowControl)), were High control is the maximum response obtained with all components and Low control is the basal response obtained with all components without GST-Tead1.
Cpd is the response obtained for test compounds.
IC50 (half maximal inhibitory concentration) was determined by fitting the concentration response curves using a 3-parameter curve fit equation and determining concentration corresponding to 50% inhibition.

T1 sequence (P28347 209-426): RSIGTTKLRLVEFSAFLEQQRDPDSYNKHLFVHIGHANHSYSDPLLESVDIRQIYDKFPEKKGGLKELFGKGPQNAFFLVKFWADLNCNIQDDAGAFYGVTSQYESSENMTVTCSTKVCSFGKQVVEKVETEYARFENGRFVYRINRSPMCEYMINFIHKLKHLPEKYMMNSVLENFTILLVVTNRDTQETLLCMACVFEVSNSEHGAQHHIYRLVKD

| Structure (SMILES) | Emax | IC50 |
| --- | --- | --- |
| CCN(/N=C/c1ccc(O)c(OC)c1)C1=NS(=O)(=O)c2ccccc21 [Example 3, 4-[(E)-[(1,1-dioxo-1,2-benzothiazol-3-yl)-ethyl-hydrazono]methyl]-2-methoxy-phenol] | 88% | 5 µM |
| COc1cc(/C=N/N(CCN2CCOCC2)C2=NS(=O)(=O)c3ccccc32)ccc1O [Example 4, 4-[(E)-[(1,1-dioxo-1,2-benzothiazol-3-yl)-(2-morpholinoethyl)hydrazono]methyl]-2-methoxy-phenol hydrochloride] | 97% | 0.615 µM |
| COc1cc(/C=N/N(CCCO)C2=NS(=O)(=O)c3ccccc32)ccc1O [Example 5, 4-[(E)-[(1,1-dioxo-1,2-benzothiazol-3-yl)-(3-hydroxypropyl)hydrazono]-methyl]-2-methoxy-phenol] | 88% | 5.5 µM |
| COc1cc(/C=N/N(CCCN(C)C)C2=NS(=O)(=O)c3ccccc32)ccc1O [Example 6, 4-[(E)-[3-(dimethylamino)propyl-(1,1-dioxo-1,2-benzothiazol-3-yl)hydrazono]methyl]-2-methoxy-phenol hydrochloride] | 95% | 7.04 µM |
| COc1cc(/C=N/N(CC(=O)NCCO)C2=NS(=O)(=O)c3ccccc32)ccc1O [Example 9, 2-[(1,1-dioxo-1,2-benzothiazol-3-yl)-[(E)-(4-hydroxy-3-methoxy-phenyl)methyleneamino]amino]-N-(2-hydroxyethyl)acetamide] | 96% | 11.6 µM |
| COc1ccc2c(c1)C(N(CCO)/N=C/c1ccc(O)c(OC)c1)=NS2(=O)=O [Example 11, 4-[(E)-[2-hydroxyethyl-(5-methoxy-1,1-dioxo-1,2-benzothiazol-3-yl) hydrazono]methyl]-2-methoxy-phenol] | 94% | 0.475 µM |
| COc1ccc2c(c1)C(N(CCN1CCOCC1)/N=C/c1ccc(O)c(OC)c1)=NS2(=O)=O [Example 12, 2-methoxy-4-[(E)-[(5-methoxy-1,1-dioxo-1,2-benzothiazol-3-yl)-(2-morpholinoethyl)hydrazono]methyl]phenol] | 95% | 0.583 µM |
| COc1ccc2c(c1)C(N(CCCN1CCOCC1)/N=C/c1ccc(O)c(OC)c1)=NS2(=O)=O [Example 13, 2-methoxy-4-[(E)-[(5-methoxy-1,1-dioxo-1,2-benzothiazol-3-yl)-(3-morpholinopropyl)hydrazono]methyl]phenol hydrochloride] | 95% | 2.12 µM |
| COc1ccc2c(c1)C(N(CCCO)/N=C/c1ccc(O)c(OC)c1)=NS2(=O)=O [Example 14, 4-[(E)-[3-hydroxypropyl-(5-methoxy-1,1-dioxo-1,2-benzothiazol-3-yl) hydrazono]methyl]-2-methoxy-phenol] | 90% | 1.63 µM |
| COCCN(/N=C/c1ccc(O)c(OC)c1)C1=NS(=O)(=O)c2ccc(OC)cc21 [Example 15, 2-methoxy-4-[(E)-[(5-methoxy-1,1-dioxo-1,2-benzothiazol-3-yl)-(2-methoxyethyl)hydrazono]methyl]phenol] | 89% | 2.89 µM |
| COc1cc(OC)c2c(c1)C(N(C)/N=C/c1ccc(O)c(OC)c1)=NS2(=O)=O [Example 16, 4-[(E)-[(5,7-dimethoxy-1,1-dioxo-1,2-benzothiazol-3-yl)-methyl-hydrazono]methyl]-2-methoxy-phenol] | 86% | 0.095 µM |
| COc1cc(OC)c2c(c1)C(N(CCO)/N=C/c1ccc(O)c(OC)c1)=NS2(=O)=O [Example 17, 4-[(E)-[(5,7-dimethoxy-1,1-dioxo-1,2-benzothiazol-3-yl)-(2-hydroxyethyl) hydrazono]methyl]-2-methoxy-phenol] | 90% | 0.15 µM |
| COCCN(/N=C/c1ccc(O)c(OC)c1)C1=NS(=O)(=O)c2c(OC)cc(OC)cc21 [Example 19, 4-[(E)-[(5,7-dimethoxy-1,1-dioxo-1,2-benzothiazol-3-yl)-(2-methoxyethyl) hydrazono]methyl]-2-methoxy-phenol] | 92% | 0.626 µM |
| COc1cc(/C=N/N(C)C2=NS(=O)(=O)c3c(OC)cccc32)ccc1O [Example 21, 2-methoxy-4-[(E)-[(7-methoxy-1,1-dioxo-1,2-benzothiazol-3-yl)-methyl-hydrazono]methyl]phenol] | 89% | 0.123 µM |
| COc1cc(/C=N/N(CCO)C2=NS(=O)(=O)c3c(OC)cccc32)ccc1O [Example 22, 4-[(E)-[2-hydroxyethyl-(7-methoxy-1,1-dioxo-1,2-benzothiazol-3-yl) hydrazono]methyl]-2-methoxy-phenol] | 97% | 0.083 µM |
| COc1cc(/C=N/N(CCO)C2=NS(=O)(=O)c3ccc(C)cc32)ccc1O [Example 27, 4-[(E)-[2-hydroxyethyl-(5-methyl-1,1-dioxo-1,2-benzothiazol-3-yl)hydrazono]methyl]-2-methoxy-phenol] | 91% | 0.891 µM |
| COc1cc(/C=N/N(CCO)C2=NS(=O)(=O)c3c(OC)cc(C)cc32)ccc1O [Example 29, 4-[(E)-[2-hydroxyethyl-(7-methoxy-5-methy-1,1-dioxo-1,2-benzothiazol-3-yl) hydrazono]methyl]-2-methoxy-phenol] | 91% | 0.13 µM |
| COc1cc(/C=N/N(C)C2=NS(=O)(=O)c3c(OC)cc(C)cc32)ccc1O [Example 31, 2-methoxy-4-[(E)-[(7-methoxy-5-methyl-1,1-dioxo-1,2-benzothiazol-3-yl)-methyl-hydrazono]methyl]phenol] | 92% | 0.131 µM |
| COc1cc(/C=N/N(CCN2CCOCC2)C2=NS(=O)(=O)c3c(OC)cc(C)cc32)ccc1O [Example 32, 2-methoxy-4-[(E)-[(7-methoxy-5-methyl-1,1-dioxo-1,2-benzothiazol-3-yl)-(2-morpholinoethyl)hydrazono]methyl]phenol hydrochloride] | 95% | 0.139 µM |
| COc1cc(/C=N/N(C)C2=NS(=O)(=O)c3cc(C)ccc32)ccc1O [Example 33, 2-methoxy-4-[(E)-[methyl-(6-methyl-1,1-dioxo-1,2-benzothiazol-3-yl)hydrazono]methyl]phenol] | 90% | 0.766 µM |

Other lines, results leading:

| Emax | IC50 | Structure (SMILES) |
| --- | --- | --- |
| 94% | 1.1 µM | COc1cc(/C=N/N(CCC(=O)O)C2=NS(=O)(=O)c3ccccc32)ccc1O [Example 8, 3-[(1,1-dioxo-1,2-benzothiazol-3-yl)-[(E)-(4-hydroxy-3-methoxy-phenyl)methyleneamino]amino]propanoic acid] |
| 92% | 5 µM | COCCCN(/N=C/c1ccc(O)c(OC)c1)C1=NS(=O)(=O)c2ccccc21 [Example 10] |
| 97% | 0.084 µM | COc1cc(OC)c2c(c1)C(N(CCN1CCOCC1)/N=C/c1ccc(O)c(OC)c1)=NS2(=O)=O [Example 18, 4-[(E)-[(5,7-dimethoxy-1,1-dioxo-1,2-benzothiazol-3-yl)-(2-morpholino-ethyl)hydrazono]methyl]-2-methoxy-phenol hydrochloride] |
| 99% | 0.305 µM | COc1cc(/C=N/N(CCN2CCOCC2)C2=NS(=O)(=O)c3c(OC)cccc32)ccc1O [Example 23, 2-methoxy-4-[(E)-[(7-methoxy-1,1-dioxo-1,2-benzothiazol-3-yl)-(2-morpholinoethyl)hydrazono]methyl]phenol hydrochloride] |
| 92% | 0.902 µM | COCCN(/N=C/c1ccc(O)c(OC)c1)C1=NS(=O)(=O)c2c(OC)cccc21 [Example 24, 2-methoxy-4-[(E)-[(7-methoxy-1,1-dioxo-1,2-benzothiazol-3-yl)-(2-methoxyethyl)hydrazono]methyl]phenol] |
| 90% | 0.568 µM | COc1cc(/C=N/N(C)C2=NS(=O)(=O)c3ccc(C)cc32)ccc1O [Example 25, 2-methoxy-4-[(E)-[methyl-(5-methyl-1,1-dioxo-1,2-benzothiazol-3-yl)hydrazono]methyl]phenol] |
| 95% | 0.399 µM | COc1cc(/C=N/N(CCN2CCOCC2)C2=NS(=O)(=O)c3ccc(C)cc32)ccc1O [Example 26, 2-methoxy-4-[(E)-[(5-methyl-1,1-dioxo-1,2-benzothiazol-3-yl)-(2-morpholinoethyl)hydrazono]methyl]phenol hydrochloride] |
| 94% | 2.65 µM | COCCN(/N=C/c1ccc(O)c(OC)c1)C1=NS(=O)(=O)c2ccc(C)cc21 [Example 28, 2-methoxy-4-[(E)-[2-methoxyethyl-(5-methyl-1,1-dioxo-1,2-benzothiazol-3-yl) hydrazono]methyl]phenol] |
| 90% | 0.878 µM | COCCN(/N=C/c1ccc(O)c(OC)c1)C1=NS(=O)(=O)c2c(OC)cc(C)cc21 [Example 30, 2-methoxy-4-[(E)-[2-methoxyethyl-(7-methoxy-5-methyl-1,1-dioxo-1,2-benzothiazol-3-yl)hydrazono]methyl]phenol] |
